Entries after “also recorded” stand apart in the source; their conditions may differ. Counter-ions that a name gives are not always drawn.
Columns and labels:
[1] = tested on: HIV-1 isolates resistant to other protease inhibitors; conditions: read-out: ED50 dose for inhibiting viral replication; cited from earlier work
[2] = tested on: iNOS expression in human primary monocytes; assay: Tat-induced iNOS expression in primary monocytes; type: cell-based; conditions: co-treatment with Tat
Description: (§1) The effect of adenosine receptor activation on Tat-induced upregulation of iNOS expression and NO release was then determined. […] In contrast, incubation of cells with 1 μM R-PIA (an adenosine A1 receptor agonist) had no effect on Tat-induced iNOS expression or NO release (FIG. 11), implicating the A2A and A3 receptor subtypes in this anti-inflammatory effect. ZM241385 (an A2AR antagonist) or MRS 1220 (an A3R antagonist) could prevent the anti-inflammatory effects of CGS21680 or IB-MECA, respectively.

[3] = tested on: TNF and IL1 mRNA in primary human monocytes; assay: qRTPCR of inflammatory gene expression in Tat-exposed monocytes; type: cell-based; conditions: Tat 100 nM, CGS21680 1 μM, 4 h
Description: (§2) Primary monocytes were seeded in separate triplicate wells, and exposed independently to LPS (100 ng/ml), vehicle (NT) or Tat (100 nM) in the presence or absence of the A2AR agonist, CGS21680 (1 μM). After 4 h, cells were harvested. (A) TNF was measured in cell supernatants by ELISA Mean data values (±S.D.) are shown for the triplicate wells. (B) The corresponding cells from each well in panel A were lysed and subjected to qRTPCR analysis. Each cDNA sample was analyzed in quadruplicate. Assay results are presented as fold induction of gene expression, compared to untreated cells, after normalization to levels of GAPDH. Data represent mean±SD for each individual experimental replicate/well.
Quantitative real-time PCR analysis was used to measure TNF message levels in Tat-treated monocytes. Primary human monocytes were prepared using CD14^+ immunomagnetic selection, and then exposed to LPS or to HIV-1 Tat for 4 hours, in the presence or absence of the A2AR agonist CGS21680. Culture supernatants were tested for TNF levels by ELISA assay (FIG. 13A), and RNA was extracted from cell pellets for quantitative reverse-transcription PCR (qRTPCR) analysis (FIG. 13B).

[4] = tested on: Tat-stimulated TNF release in monocytes; assay: Tat-stimulated TNF release by primary monocytes (ELISA); type: cell-based, human; conditions: Tat 100 nM, 4 h; CGS21680 1 μM; ATL313, ATL455 1-4 nM; hydrochloride
Description: Human primary monocytes were treated with Tat (100 nM) in the presence or absence of the A2AR agonist, CGS21680 (CGS; 1 μM) or the A2AR antagonist, ZM241385 (100 nM) for 4 h. TNF levels in culture supernatants were then quantitated by ELISA. Data represent mean+SEM of three replicates, from a single representative experiment
as §2
Human primary monocytes were treated with Tat (100 nM) in the presence or absence of the A2AR agonist, ATL313 (1-4 nM) or the A2AR antagonist, ATL455 (1-4 nM) for 4 h. TNF levels in culture supernatants were then quantitated by ELISA. […]
Human primary monocytes were treated with Tat (100 nM) in the presence or absence of the A2AR agonist, ATL313 (at the indicated doses) for 4 h. TNF levels in culture supernatants were then quantitated by ELISA. […]
(6) Primary monocytes. […] Results are compared for both populations, as well as purity (as assessed by immunophenotyping using CD14, CD68 and MHC class II).
The effect of an A2AR agonist on TNF release by primary human monocytes was also determined. Monocytes were stimulated with HIV-1 Tat, in the presence or absence of the A2AR agonist CGS21680 or the A2AR antagonist ZM251385 and TNF release was then measured in cell culture supernatants using an ELISA assay.
Quantitative real-time PCR analysis was used to measure TNF message levels in Tat-treated monocytes. […]

[5] = tested on: NO release by human primary monocytes; assay: Tat-induced nitric oxide release by primary monocytes (Griess reaction); type: cell-based; conditions: co-treatment with Tat, 8 h; R-PIA 1 μM
Description: Human primary monocytes were treated with Tat in the presence or absence of the indicated adenosine receptor agonists for 8 h, and nitric oxide levels in the culture medium of the cells were then quantitated using the Griess reaction (Active Motif). Data represent mean+SEM of three experiments.
as §1

[6] = tested on: rat cerebellar granule neurons (CGNs); assay: Tat-induced apoptosis of cerebellar granule neurons (TUNEL); type: cell-based; conditions: Tat 500 nM, 48 h
Description: (§3) CGNs were exposed to HIV-1 Tat (Tat, 500 nM), or vehicle alone (NT), in the presence or absence of the A2A antagonist, ZM241385. After 48 h, cultures were analyzed for the percentage of apoptotic cells using the TUNEL assay. Data represent mean±SEM for one experiment that was performed in triplicate; data are representative of two independent experiments.
as §3, with “(No Tat),” for “(NT),”, “A2AR antagonists, ATL455 and ZM241385, or the A2AR agonists ATL313 and CGS21680.” for “A2A antagonist, ZM241385.”
(1) Primary rat cerebellar granule neurons (CGNs). CGNs represent a highly homogenous population of primary neurons which are susceptible to Tat and PAF-mediated cell killing and have been used in many of previous studies. CGN cells are isolated according to published procedures [Maggirwar, S. B., et al. 1999. J Neurochem 73:578-86] [Tong, N., et al. 2001. Eur J Neurosci 13:1913-22].
78(4): p. […] 22(6): p. 1102-6].
Primary rat cerebellar granule neurons (CGNs) were exposed to a neurotoxic concentration of HIV-1 Tat, in the presence or absence of an A2AR antagonist (ZM241385). […] It is important to note that CGNs express adenosine A2A receptors [Vacas, J., et al. 2003. Brain Res 992:272-280].
Primary cultures of rat cerebellar granule neurons (CGNs) were exposed to HIV-Tat ([…]) alone or together with increasing doses of the A2AR antagonist ATL-455 or A2A agonists ATL313 or CGS21680. Cells are treated with the test compounds for defined time intervals of up to 48 hours (1, 4, 8, 24, and 48 hours).

rat cortical neurons = type: cell-based
Description: Measuring production of intracellular ROS: Generation of ROS in response to Tat and PAF is assessed with the oxidizable dye indicator 5-(and-6)-chloromethyl-2′, 7′-dichlorodihydrofluorescein diacetate, acetyl ester (CM—H2DCFDA, abbreviated as “DCF”) (Molecular Probes, Eugene, Oreg.). Upon entering the cell by passive diffusion, the acetate groups are cleaved by intracellular esterases, and the thiol-reactive chloromethyl group binds to intracellular thiols, rendering the CM—H2DCF product trapped within the cell. […] [manufacturer's data] leaves the final fluorescent product CM-DCF, which is then imaged (excitation: 485, emission: 538) and quantitated in the same fashion as TMRM (above) as an indicator of relative levels of ROS in the culture.

rodent cortical cultures = assay: FM1-43 vesicular uptake in cortical neuronal cultures; type: cell-based, rat; conditions: all doses of Tat
Description: (C) Moreover, activity dependent FM1-43 release by KC1 depolarization preferentially reduces the punctate vesicular labeling versus background signal. (D) In ≦14 and ≧14 day old primary neurons, 2.5 μg/ml Tat and 4.25 μg/ml Tat induces an increase in spontaneous activity dependent vesicular uptake, an effect that is both dose and culture age dependent.
Cortical neuronal cultures were treated with Tat or cPAF for varying periods of time as an in vitro model of pre-synaptic nerve terminal function, using the lipophilic, fluorescent styryl dye N-(3-triethylammoniumpropyl)-4-(4-(dibutylamino)styryl) pyridinium dibromide (FM1-43), which binds to synaptic vesicle membranes and is taken up into nerve terminals during normal activity (i.e., synaptic vesicle recycling). Fluorescent signal can be quantified to number of neurons, and after chemical depolarization with high concentrations of KC1, fluorescent signal is abolished, giving an index of nerve terminal activity in real-time. […] 68(7): p. 4628-35]. […]
FM1-43 uptake assay: Total spontaneous activity dependent vesicular uptake was assessed using the lipophilic styryl dye N-(3-triethylammoniumpropyl)-4-(4-(dibutylamino)styryl) pyridinium dibromide (FM1-43). […] Upon subsequent exocytosis, the vesicle fuses with the membrane, releasing its contents, and the FM1-43 dissociates back into the extracellular solution and loses its fluorescence. […]

## COC(=O)N[C@H](C(=O)N[C@@H](Cc1ccccc1)[C@@H](O)CN(Cc1ccc(-c2ccccn2)cc1)NC(=O)[C@@H](NC(=O)OC)C(C)(C)C)C(C)(C)C [Atazanvir, Atazanavir]
[1]
  EC50: 2 to 8 nM

## CCNC(=O)[C@H]1O[C@@H](n2cnc3c(N)nc(NCCc4ccc(CCC(=O)O)cc4)nc32)[C@H](O)[C@@H]1O [CGS21680, 4-[2-[[6-Amino-9-(N-ethyl-b-D-ribofuranuronamidosyl)-9H-purin-2yl]amino]ethyl]benzenepropanoic acid hydrochloride]
[2]
  inhibition of Tat-induced iNOS expression: roughly 50%
[3]
  effect on IL1 mRNA levels: little effect
  effect on TNF transcription: strongly suppressed
[4]
  effect on Tat-induced monocyte activation (TNF release): abrogated; also recorded: strongly suppressed; also recorded: opposed
[5]
  effect on Tat-induced NO secretion: complete abrogation
[6]
  effect on Tat-induced neuronal apoptosis: did not result in an increase in cell death

## OO [H202, hydrogen peroxide]
Rat cortical neurons
  increase in ROS production: 90%

## C[C@H](CCC(=O)NCCS(=O)(=O)O)[C@H]1CC[C@H]2[C@@H]3[C@@H](O)C[C@@H]4C[C@H](O)CC[C@]4(C)[C@H]3CC[C@]12C [TUDCA, tauroursodeoxycholic acid]
Rodent cortical cultures
  effect on Tat-induced increase in FM1-43 uptake: completely blocked; also recorded: completely eliminated

Reference: patent US20080269161A1, “Compositions and Methods Relating to Mitochondrial Hyperpolarization in Neurological Disease” (priority 2005, published 2008)
